In patent publication US9963445B2, “Chemical compounds” (SYNGENTA PARTICIPATIONS AG, priority 2013, dated 2018):

Columns and labels:
Assay type in all cases: in vivo
Alopecurus myosuroides [1] = test: Post-emergence herbicidal activity, glasshouse pot test; design: key: 0 = no damage to plant, 5 = total damage to plant; conditions: Application post-emergence, rate 1000 g/ha, evaluated after 13 days
Summary of the method: (§1)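 Pot-grown seedlings, sown in standard soil, were sprayed 8 days after sowing and kept in a controlled glasshouse (24/16 °C, 14 h photoperiod, 65% humidity). Injury was assessed visually 13 days later on a scale where 5 means total damage.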

Amaranthus retroflexus [2] = test: as above; design: key: 0 = no damage to plant, 5 = total damage to plant; conditions: Application post-emergence, rate 1000 g/ha, evaluated after 13 days
Summary of the method: as §1

zea mays [3] = test: as above; design: key: 0 = no damage to plant, 5 = total damage to plant; conditions: Application post-emergence, rate 1000 g/ha, evaluated after 13 days
Summary of the method: as §1

Setaria faberi [4] = test: as above; design: key: 0 = no damage to plant, 5 = total damage to plant; conditions: Application post-emergence, rate 1000 g/ha, evaluated after 13 days
Summary of the method: as §1

Abutilon theophrasti [5] = test: as above; design: key: 0 = no damage to plant, 5 = total damage to plant; conditions: Application post-emergence, rate 1000 g/ha, evaluated after 13 days
Summary of the method: as §1

Echinochloa crus-galli [6] = test: as above; design: key: 0 = no damage to plant, 5 = total damage to plant; conditions: Application post-emergence, rate 1000 g/ha, evaluated after 13 days
Summary of the method: as §1

Alopecurus myosuroides [7] = test: Pre-emergence herbicidal activity, glasshouse pot test; conditions: pre-emergence spray, rate 1000 g/ha, evaluated after 13 days, scale 0-5
Summary of the method: (§2)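 Damage score 0–5 (5 = total damage) read 13 d after spraying. Pots sown, sprayed pre-emergence at day 1 with aqueous spray from acetone/water 50:50 + 0.5% Tween 20 formulation; glasshouse 24/16 °C, 14 h light, 65% RH.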

Amaranthus retroflexus [8] = test: as above; conditions: pre-emergence spray, rate 1000 g/ha, evaluated after 13 days, scale 0-5
Summary of the method: as §2

zea mays [9] = test: as above; conditions: pre-emergence spray, rate 1000 g/ha, evaluated after 13 days, scale 0-5
Summary of the method: as §2

Setaria faberi [10] = test: as above; conditions: pre-emergence spray, rate 1000 g/ha, evaluated after 13 days, scale 0-5
Summary of the method: as §2

Abutilon theophrasti [11] = test: as above; conditions: pre-emergence spray, rate 1000 g/ha, evaluated after 13 days, scale 0-5
Summary of the method: as §2

Echinochloa crus-galli [12] = test: as above; conditions: pre-emergence spray, rate 1000 g/ha, evaluated after 13 days, scale 0-5
Summary of the method: as §2

Compound | ALOMY herbicidal damage score (Alopecurus myosuroides [1]) | AMARE herbicidal damage score (Amaranthus retroflexus [2]) | ZEAMX herbicidal damage score (zea mays [3]) | SETFA herbicidal damage score (Setaria faberi [4]) | ABUTH herbicidal damage score (Abutilon theophrasti [5]) | ECHCG herbicidal damage score (Echinochloa crus-galli [6]) | ALOMY damage score, application pre-emergence (Alopecurus myosuroides [7]) | AMARE damage score, application pre-emergence (Amaranthus retroflexus [8]) | ZEAMX damage score, application pre-emergence (zea mays [9]) | SETFA damage score, application pre-emergence (Setaria faberi [10]) | ABUTH damage score, application pre-emergence (Abutilon theophrasti [11]) | ECHCG damage score, application pre-emergence (Echinochloa crus-galli [12])
CC1=C(Cl)C(=O)N(c2cc(C(C)(C)C)c(Cl)nn2)C1O (stereo not drawn) [BF1] | 4 | 5 | 2 | 4 | 5 | 5 | 2 | 5 | 1 | 3 | 4 | 2
CC1=C(Cl)C(=O)N(c2cc(C(F)(F)F)c(C(=O)OC(C)C)cn2)C1O (stereo not drawn) [AF92] | 4 | 5 | 4 | 5 | 5 | 5 | 4 | 4 | 3 | 5 | 2 | 3
C/C=C/c1cc(N2C(=O)C(Cl)=C(C)C2O)ncn1 (stereo not drawn) [CF6] | 3 | 2 | 0 | 4 | 4 | 4 | 2 | 2 | 0 | 2 | 0 | 3
CC#Cc1nnc(N2C(=O)C(OC)=C(C)C2O)cc1C(C)(C)F (stereo not drawn) [BI12] | 4 | 5 | 4 | 5 | 5 | 5 | 2 | 5 | 3 | 5 | 4 | 4
COC(=O)c1cnc(N2C(=O)C(Cl)=C(C)C2O)cc1C(F)(F)F (stereo not drawn) [AF42] | 3 | 4 | 1 | 5 | 4 | 4 | 0 | 0 | 0 | 0 | 0 | 0
CC1=C(Cl)C(=O)N(c2nccc(C(F)(F)F)c2F)C1O (stereo not drawn) [AF5] | 5 | 5 | 4 | 5 | 5 | 5 | 4 | 5 | 4 | 4 | 4 | 4
CCC1=C(Br)C(=O)N(c2cc(C(C)(C)C#N)ncn2)C1O (stereo not drawn) [CG2] | 5 | 5 | 5 | 5 | 5 | 5 | 2 | 4 | 2 | 3 | 5 | 4
CC1=C(Cl)C(=O)N(c2cc(C#N)ncn2)C1O (stereo not drawn) [CF13] | 3 | 2 | 1 | 3 | 2 | 1 | 0 | 0 | 1 | 0 | 0 | 0
COC1=C(OC)C(O)N(c2cc(C(F)(F)F)ccn2)C1=O (stereo not drawn) [AK8] | 4 | 5 | 3 | 5 | 5 | 5 | 3 | 5 | 2 | 3 | 5 | 4
CC1=C(Cl)C(=O)N(c2cc(C)ccn2)C1O (stereo not drawn) [AF41] | 5 | 5 | 4 | 5 | 5 | 5 | 4 | 5 | 3 | 4 | 5 | 4
CC(C)=C(C)c1cnc(N2C(=O)C(Cl)=C(C)C2O)cc1C(F)(F)F (stereo not drawn) [AF2] | 4 | 5 | 1 | 5 | 5 | 5 | 0 | 3 | 0 | 4 | 1 | 3
CC1=C(Cl)C(=O)N(c2nccc(C(C)(C)C#N)n2)C1O (stereo not drawn) [DF5] | 4 | 5 | 3 | 4 | 5 | 5 | 4 | 5 | 3 | 4 | 5 | 5
CCCC1=C(Cl)C(=O)N(c2cc(C(F)(F)F)ccn2)C1O (stereo not drawn) [AF81] | 4 | 5 | 2 | 4 | 5 | 5 | 3 | 5 | 2 | 2 | 4 | 5
COc1ccnc(N2C(=O)C(Cl)=C(C)C2O)c1 (stereo not drawn) [AF44] | 3 | 1 | 2 | 1 | 3 | 4 | 0 | 0 | 0 | 0 | 0 | 0
CSc1ccc(N2C(=O)C(Cl)=C(C)C2OC(C)=O)nc1 (stereo not drawn) [AF19] | 4 | 5 | 1 | 3 | 3 | 3 | 0 | 0 | 0 | 0 | 0 | 0
COC1=C(C)C(O)N(c2cc(C(C)F)c(Cl)nn2)C1=O (stereo not drawn) [BI10] | 4 | 5 | 3 | 5 | 5 | 5 | 3 | 5 | 2 | 2 | 5 | 4
